The values that follow come from patent US12227521B2, “CGRP antagonist compounds” (Nxera Pharma UK Limited, priority 2019, dated 2025).

This experiment addresses T1, human CGRP receptor (Homo sapiens, UniProt O60894+Q16602).
T1 construct: SK-N-MC endogenously expressing the human CGRP receptor; endogenous in cells; host or cells: SK-N-MC human neuroblastoma cells
Nature of the experiment: cAMP functional assay (HTRF cAMP dynamic-2) in SK-N-MC cells. The format is cell-based. As to conditions: SK-N-MC cells endogenously expressing human CGRP receptor; challenge with EC80 human CGRP (0.3 nM); functional pKb converted from pIC50 by modified Cheng-Prussoff equation. As for the experimental part:
cAMP production following receptor activation was determined using the Homogeneous Time-Resolved Fluorescence (HTRF) cAMP dynamic-2 assay (Cisbio, France). The human neuroblastoma cell line SK-N-MC endogenously expressing the human CGRP receptor was seeded at a density of 12,500 cells/well in solid walled 96 well half area plates (Costar, Catalog Number 3688, Corning Life Sciences, Germany). After 16 h incubation at 37° C. media was removed and cells were incubated at 37° C. for 30 min in serum free media containing 500 μM IBMX (Tocris, Abingdon, UK, Catalog Number 2845) and increasing concentrations of test antagonist. Following this cells were challenged with an EC80 concentration of human CGRP (0.3 nM) for a further 30 m at 37°) and then cAMP production was determined as manufacturer's instructions before plates were read on a PheraStar fluorescence plate reader (BMG LabTech, Germany). IC50 values were derived from the inhibition curve. The pIC50 values (where pIC50=−log10 IC50) were converted to a functional pKb value using a modified Cheng-Prussoff equation where Kd=agonist EC50 and L hot=agonist challenge concentration. The pKb values of certain compounds of the invention are detailed in Table 5.
On the technique in general: Time-resolved FRET reads energy transfer from a long-lived donor to a nearby acceptor.

T1 sequence (Q16602 23-461): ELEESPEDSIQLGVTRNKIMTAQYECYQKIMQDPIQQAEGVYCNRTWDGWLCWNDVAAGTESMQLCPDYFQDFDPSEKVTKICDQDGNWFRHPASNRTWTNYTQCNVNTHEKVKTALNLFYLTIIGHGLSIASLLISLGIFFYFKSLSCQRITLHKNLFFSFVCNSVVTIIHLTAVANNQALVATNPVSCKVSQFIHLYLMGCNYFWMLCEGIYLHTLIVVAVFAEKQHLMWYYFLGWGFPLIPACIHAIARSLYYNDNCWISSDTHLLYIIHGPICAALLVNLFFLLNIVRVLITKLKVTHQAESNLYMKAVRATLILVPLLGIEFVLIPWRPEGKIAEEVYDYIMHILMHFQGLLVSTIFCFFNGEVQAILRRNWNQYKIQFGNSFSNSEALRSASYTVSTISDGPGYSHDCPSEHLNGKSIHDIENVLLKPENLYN
T1 sequence (O60894 27-148): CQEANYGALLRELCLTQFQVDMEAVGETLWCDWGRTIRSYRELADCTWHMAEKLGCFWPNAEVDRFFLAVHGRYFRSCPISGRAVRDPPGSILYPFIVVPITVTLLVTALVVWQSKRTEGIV

`C[C@@H]1[C@H](c2c(F)ccc(F)c2F)C[C@@H]2NC(=O)c3cnc4c(c3)C[C@@]3(C4)C(=O)Nc4ncc(cc43)/C=C/COCCOCCN1C2=O` (single isomer, unassigned) [1-1 Isomer 1] had a Kb of 6.31 pM.
